Starred links: 1 amine or outer side, 2 acyl side, 3 side chain; linkers in the order of their positions; H or OH if unused. Positions of bridges follow the written chain, without caps; N, C: chain ends. Residues, ends and D or L forms follow the SMILES beside them. Suc = O=C(CCC(=O)[*:2])[*:1]
Tests used:
[1] = test system: H1/Cal HA (A/California/07/2009 (H1N1)); type: binding, influenza A virus
[2] = test system: H1/NCa HA (A/New Caledonia/20/1999 (H1N1)); type: binding, influenza A virus
[3] = test system: H5/Viet HA (A/Vietnam/1203/2004 (H5N1)); type: binding, influenza A virus
[4] = test system: H1N1 A/Brisbane/59/2007 (H1/Bri) HA; type: biochemical, influenza A virus; conditions: pH 5.25
[5] = target: group 1 H1/Cal, H1/NCa, and H5/Viet HAs; type: binding, influenza A virus; conditions: read-out: KD by SPR (range over HAs)
[6] = test system: group 1 H1/Cal, H1/NCa, and H5/Viet HAs; type: binding, influenza A virus; conditions: read-out: IC50 in AlphaLISA (range over HAs)
[7] = In vitro cell permeability assay; conditions: for Papp B→A at 120 min, 5 µM: LLC-Parent, basolateral to apical
[8] = test system: P-gp (MDR1); test: In vitro cell permeability / P-gp substrate assay; conditions: pig; for Papp A→B at 120 min, 5 µM: LLC-MDR1, apical to basolateral; for Papp B→A at 120 min, 5 µM: LLC-MDR1, basolateral to apical
[9] = test system: HAs from group 2 and influenza B viruses; type: binding, influenza A and B viruses

Row | SMILES | IC50 [1] [µM] | IC50 [2] [µM] | IC50 [3] [µM] | IC50 [4] [µM] | Kd [5] [µM] | IC50 [6] [µM] | recovery ([7]; LLC-PK1) [%] | Papp A→B at 120 min, 5 µM ([7]; pig, LLC-PK1, pH 7.4) [×10⁻⁶ cm/s] | Papp B→A at 120 min, 5 µM ([7]; pig, LLC-PK1, pH 7.4, Papp BA, no inhibitor) [×10⁻⁶ cm/s] | Papp B→A at 120 min, 5 µM ([7]; pig, LLC-PK1, pH 7.4, with 5 µM GF120918 (elacridar), Papp BA, + 5 µM GF120918) [×10⁻⁶ cm/s] | Papp A→B at 120 min, 5 µM ([8]; LLC-PK1, pH 7.4, Papp AB, no inhibitor) [×10⁻⁶ cm/s] | Papp B→A at 120 min, 5 µM ([8]; LLC-PK1, pH 7.4, Papp BA, no inhibitor) [×10⁻⁶ cm/s] | Papp A→B at 120 min, 5 µM ([8]; LLC-PK1, pH 7.4, with 5 µM GF120918 (elacridar), Papp AB, + 5 µM GF120918) [×10⁻⁶ cm/s] | Papp B→A at 120 min, 5 µM ([8]; LLC-PK1, pH 7.4, with 5 µM GF120918 (elacridar), Papp BA, + 5 µM GF120918) [×10⁻⁶ cm/s] | Binding to HAs of group 2 and influenza B viruses [9]
1 | CSCC[C@@H]1NC(=O)CNC(=O)CNC(=O)[C@H](C)NC(=O)[C@H](C(C)C)NC(=O)CNC(=O)[C@H](CC(C)C)NC(=O)[C@@H]2CCCN2C(=O)[C@H](CC(=O)O)NC(=O)[C@H](CCCNC(=N)N)NC(=O)[C@H](Cc2ccc(O)cc2)NC(=O)[C@H](CC(C)C)NC(=O)[C@@H](NC(=O)CCC(=O)O)CSSC[C@@H](C(N)=O)NC(=O)CNC1=O [CP8] | 0.11 | 0.16 ± 0.02 | 1.55 ± 0.29 | 0.54 ± 0.01 | 0.32 to 0.33 | 0.11 to 1.55 |  |  |  |  |  |  |  |  | 
2 | CSCC[C@@H]1NC(=O)CNC(=O)CNC(=O)[C@H](C)NC(=O)[C@H](C(C)C)NC(=O)CNC(=O)[C@H](CC(C)C)NC(=O)[C@@H]2CCCN2C(=O)[C@H](CC(=O)O)NC(=O)[C@H](CCC(=O)O)NC(=O)[C@H](Cc2ccc(O)cc2)NC(=O)[C@H](CC(C)C)NC(=O)[C@@H](NC(=O)CCC(=O)O)CSSC[C@@H](C(N)=O)NC(=O)CNC1=O [CP9] | 0.3 ± 0.03 | 0.7 ± 0.02 | 5.59 ± 0.21 | 0.23 ± 0.02 |  |  |  |  |  |  |  |  |  |  | 
3 | CSCC[C@@H]1NC(=O)[C@H](CCC(=O)O)NC(=O)CNC(=O)[C@H](C)NC(=O)[C@H](C(C)C)NC(=O)CNC(=O)[C@H](CC(C)C)NC(=O)[C@@H]2CCCN2C(=O)[C@H](CC(=O)O)NC(=O)[C@H](CCCNC(=N)N)NC(=O)[C@H](Cc2ccc(O)cc2)NC(=O)[C@H](CC(C)C)NC(=O)[C@@H](NC(=O)CCC(=O)O)CSSC[C@@H](C(N)=O)NC(=O)CNC1=O [CP10] (Suc-CLYRDPLGVAGEMGC-NH2; disulfide 1-15) | 0.61 ± 0.08 | 2.93 ± 0.32 | 7.61 ± 1.56 | 0.46 ± 0.04 |  |  |  |  |  |  |  |  |  |  | 
4 | CSCC[C@@H]1NC(=O)CNC(=O)CNC(=O)[C@H](C)NC(=O)[C@H](C(C)C)NC(=O)CNC(=O)[C@H](CC(C)C)NC(=O)[C@@H]2CCCN2C(=O)[C@H](CC(=O)O)NC(=O)[C@H](CCCNC(=N)N)NC(=O)[C@H](Cc2ccc(O)cc2)NC(=O)[C@@H](NC(=O)CCC(=O)O)CSSC[C@@H](C(N)=O)NC1=O [CP11] | 4.1 ± 0.76 | 4.99 ± 0.6 | 7.78 ± 2.63 | 8.52 ± 0.39 |  |  |  |  |  |  |  |  |  |  | 
5 | CSCC[C@@H]1NC(=O)CNC(=O)CNC(=O)[C@H](C)NC(=O)[C@H](C(C)C)NC(=O)CNC(=O)[C@H](CC(C)C)NC(=O)[C@@H]2CCCN2C(=O)[C@H](CC(=O)O)NC(=O)[C@H](CCC(=O)O)NC(=O)[C@H](Cc2ccc(O)cc2)NC(=O)[C@@H](NC(=O)CCC(=O)O)CSSC[C@@H](C(N)=O)NC1=O [CP12] | 6.38 ± 0.17 | 4.95 ± 0.38 | 28.8 ± 10.2 |  |  |  |  |  |  |  |  |  |  |  | 
6 | CSCC[C@@H]1NC(=O)[C@H](CCC(=O)O)NC(=O)CNC(=O)[C@H](C)NC(=O)[C@H](C(C)C)NC(=O)CNC(=O)[C@H](CC(C)C)NC(=O)[C@@H]2CCCN2C(=O)[C@H](CC(=O)O)NC(=O)[C@H](CCCNC(=N)N)NC(=O)[C@H](Cc2ccc(O)cc2)NC(=O)[C@@H](NC(=O)CCC(=O)O)CSSC[C@@H](C(N)=O)NC1=O [CP13] | 11.8 ± 2.61 | 12.79 ± 0.09 | 39.8 ± 12.2 | 39.4 ± 8.32 |  |  |  |  |  |  |  |  |  |  | 
7 | CSCC[C@@H]1NC(=O)CNC(=O)CNC(=O)[C@H](C)NC(=O)[C@H](C(C)C)NC(=O)CNC(=O)[C@H](CC(C)C)NC(=O)[C@@H]2CCCN2C(=O)[C@H](CC(=O)O)NC(=O)[C@H](CCC(=O)O)NC(=O)[C@H](Cc2ccc(O)cc2)NC(=O)[C@H](CC(C)C)NC(=O)CNC1=O [CP14] | 1.72 ± 0.24 | 1.24 ± 0.15 | 10 ± 0.91 | 1.24 ± 0.03 |  |  | 96.5 | 0.11 | 0.12 ± 0.01 | 0.11 ± 0.01 | 0.26 ± 0.04 | 0.32 ± 0.05 | 0.25 ± 0.01 | 0.33 ± 0.05 | 
8 | CSCC[C@H](NC(=O)CNC(=O)CNC(=O)[C@H](C)NC(=O)[C@@H](NC(=O)CNC(=O)[C@H](CC(C)C)NC(=O)[C@@H]1CCCN1C(=O)[C@H](CC(=O)O)NC(=O)[C@H](CCCNC(=N)N)NC(=O)[C@H](Cc1ccc(O)cc1)NC(=O)[C@H](CC(C)C)NC(=O)[C@H](CO)NC(=O)[C@@H](NC(=O)CCC(=O)O)C(C)C)C(C)C)C(=O)NCC(=O)N[C@H](C(=O)N[C@@H](Cc1ccc(O)cc1)C(N)=O)C(C)C [LP1] | 11.5 ± 2.5 | 22.9 ± 4.14 | 47.9 ± 3.77 |  | 3 to 7 | 11 to 47 |  |  |  |  |  |  |  |  | no binding was observed

Source: PMC12714728, “VHH antibody loop guides design of a synthetic macrocyclic peptide that potently blocks influenza virus membrane fusion” (npj Viruses, 2025)
